Data: BindingDB's records for doi:10.1016/s0960-894x(03)00584-5 (Schering-Plough Research Institute, 2003)

Target: Hepatitis C virus NS3 protease (Hepatitis C virus)
Experiment: Inhibitory activity evaluated in the HCV protease binding assay

- IC50: 2800 nM
Compound: O=C1OC[C@H]2O[C@@H](Oc3cc(O)c4c(c3)OC(c3ccccc3)CC4=O)[C@H](O)[C@@H](O)[C@@H]2OC(=O)c2cc(O)c(O)c(O)c2-c2c1cc(O)c(O)c2O (stereo partly specified) [2,3,4,5,6,7,14,15-octahydroxy-13-(5-hydroxy-4-oxo-2-phenyl-3,4-dihydro-2H-7-chromenyloxy)-9,11,11a,13,14,15,15a,17-octahydrodibenzo[g,i]pyrano[3,2-b][1,5]dioxacycloundecine-9,17-dione]
